In patent publication US11415579B2, “Assay for measuring a rate of reaction between a target and a ligand candidate” (Imperial College Innovations Ltd., priority 2016, dated 2022):

Assays:
[1] = Kinetic thiol consumption assay with model thiol glutathione; assay type: physicochemical; set-up: Rate constant with glutathione (k(GSH)): unit not given here; conditions: for Rate constant with glutathione (k(GSH)): 500 μM ligand, 5 μM thiol, phosphate buffer pH 8; for Rate constant with Glutathione: Protein: Glutathione, cysteine position NA, in h-1
Method in brief: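 GSH 5 μM, degassed phosphate buffer pH 8, TCEP beads 2% v/v; acrylamide added; RT, 1 h; fluorescence ex/em 380/470 nm; normalized to DMSO/thiol control; k from first-order exponential decay fit.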

[2] = target: T1, human cyclin-dependent kinase 2 (Cdk2) (Homo sapiens, UniProt P24941); assay: Kinetic thiol consumption assay with wild type Cdk2 (C177); assay type: binding; set-up: key to Rate enhancement, Cdk2 WT: k(Cdk2) divided by k(model thiol); Rate constant with Cdk2 (k(Cdk2)): unit not given here; conditions: for Rate constant with Cdk2 (k(Cdk2)): 500 μM ligand, 5 μM thiol, phosphate buffer pH 8; for Rate enhancement, Cdk2 WT: no additional mutations; for Rate constant with Cdk2 WT: Protein: Cdk2, cysteine position WT, in h^-1; for k(Cdk2)/k(Cdk2_mut) rate enhancement: model thiol Cdk2[C177A, F80C, K278C]; for k(Cdk2)/k(GSH) rate enhancement: model thiol glutathione
T1 construct: poly-histidine; made in house; host or cells: E. coli
Method in brief: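 His-tagged human Cdk2 from E. coli (sole surface cysteine C177) or a model thiol, each 5 μM in degassed phosphate buffer pH 8 with immobilized TCEP, reacted with acrylamides at room temperature. Fluorescence (ex 380/em 470) normalized to DMSO/thiol control over time; first-order rate constants, Cdk2 rate divided by model-thiol rate.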

Cdk2[C177A, F80C, K278C] = target: T2, Cdk2[C177A, F80C, K278C] (Homo sapiens, UniProt P24941, C177A/F80C/K278C); assay: Kinetic thiol consumption assay with mutant Cdk2 as model thiol; assay type: binding; set-up: unit not given here; conditions: 500 μM ligand, 5 μM thiol, phosphate buffer pH 8
T2 construct: poly-histidine; made in house; host or cells: E. coli
Method in brief: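 First-order rate constants were derived by exponential-decay fitting of DMSO/thiol-normalized fluorescence (380/470 nm) over time at room temperature. Thiol was 5 μM E. coli-expressed His-tagged Cdk2 mutant C177A/F80C/K278C in degassed pH 8 phosphate buffer containing 2% v/v TCEP beads.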

Cdk2(C177A, F80C) = target: T3, Cdk2(C177A, F80C) (Homo sapiens, UniProt P24941, C177A/F80C); assay: Kinetic thiol consumption assay with Cdk2 mutant F80C, incl. kobs versus concentration (Kd, k2); assay type: binding; set-up: key to Rate enhancement, Cdk2 F80C: Cdk2 rate constant divided by model-thiol rate constant; conditions: additional mutation C177A; for Rate constant with Cdk2 F80C: Protein: Cdk2, cysteine position F80C, in h^-1
T3 construct: poly-histidine; made in house; host or cells: E. coli
Method in brief: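 His-tagged Cdk2(C177A/F80C) from E. coli or model thiol, 5 μM in degassed phosphate buffer pH 8 with TCEP beads, reacted with acrylamide ligands; fluorescence (ex/em 380/470 nm) normalized to DMSO control and fitted to first-order decay for kobs. Kd and k2 obtained from hyperbolic fit of kobs versus ligand concentration.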

Cdk2(H71C) (C177A) = target: T4, Cdk2(H71C) (C177A) (Homo sapiens, UniProt P24941, C177A/H71C); assay: Kinetic thiol consumption assay with Cdk2 mutant H71C; assay type: binding; set-up: key to Rate enhancement, Cdk2 H71C: rate constant with Cdk2 ÷ rate constant with model thiol (fold); conditions: additional mutation C177A
T4 construct: poly-histidine; made in house; host or cells: E. coli
Method in brief: (§1)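 Read-out is fluorescence at 380/470 nm, taken after 1 h at room temperature and normalized to a DMSO/thiol-only control over time. Thiol (5 μM Cdk2 mutant or model thiol) was in degassed pH 8 phosphate buffer with 2% v/v TCEP beads. Acrylamide rate constants for Cdk2 were divided by those with model thiol.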

Cdk2(S276C) (C177A) = target: T5, Cdk2(S276C) (C177A) (Homo sapiens, UniProt P24941, C177A/S276C); assay: Kinetic thiol consumption assay with Cdk2 mutant S276C; assay type: binding; set-up: key to Rate enhancement, Cdk2 S276C: rate constant with Cdk2 ÷ rate constant with model thiol (fold); conditions: additional mutation C177A; for Rate constant with Cdk2 S276C: Protein: Cdk2, cysteine position S276C, in h^-1
T5 construct: poly-histidine; made in house; host or cells: E. coli
Method in brief: as §1

Cdk2(N272C) (C177A) = target: T6, Cdk2(N272C) (C177A) (Homo sapiens, UniProt P24941, C177A/N272C); assay: Kinetic thiol consumption assay with Cdk2 mutant N272C; assay type: binding; set-up: key to Rate enhancement, Cdk2 N272: rate constant with Cdk2 ÷ rate constant with model thiol (fold); conditions: for Rate enhancement, Cdk2 N272: Cdk2 N272, additional mutation C177A; for Rate constant with Cdk2 N272C: Protein: Cdk2, cysteine position N272C, additional mutation C177A, in h^-1
T6 construct: poly-histidine; made in house; host or cells: E. coli
Method in brief: as §1

Cdk2(T182C) (C177A) = target: T7, Cdk2(T182C) (C177A) (Homo sapiens, UniProt P24941, C177A/T182C); assay: Kinetic thiol consumption assay with Cdk2 mutant T182C; assay type: binding; set-up: key to Rate enhancement, Cdk2 T182C: rate constant with Cdk2 ÷ rate constant with model thiol (fold); conditions: additional mutation C177A; for Rate constant with Cdk2 T182C: Protein: Cdk2, cysteine position T182C, in h^-1
T7 construct: poly-histidine; made in house; host or cells: E. coli
Method in brief: as §1

Cdk2(R122C) (C177A) = target: T8, Cdk2(R122C) (C177A) (Homo sapiens, UniProt P24941, C177A/R122C); assay: Kinetic thiol consumption assay with Cdk2 mutant R122C; assay type: binding; set-up: key to Rate enhancement, Cdk2 R122C: rate constant with Cdk2 ÷ rate constant with model thiol (fold); conditions: additional mutation C177A; for Rate constant with Cdk2 R122C: Protein: Cdk2, cysteine position R122C, in h-1
T8 construct: poly-histidine; made in house; host or cells: E. coli
Method in brief: as §1

Cdk2(S181C) (C177A) = target: T9, Cdk2(S181C) (C177A) (Homo sapiens, UniProt P24941, C177A/S181C); assay: Kinetic thiol consumption assay with Cdk2 mutant S181C; assay type: binding; set-up: key to Rate enhancement, Cdk2 S181C: rate constant with Cdk2 ÷ rate constant with model thiol (fold); conditions: additional mutation C177A; for Rate constant with Cdk2 S181C: Protein: Cdk2, cysteine position S181C, in h^-1
T9 construct: poly-histidine; made in house; host or cells: E. coli
Method in brief: as §1

Row | SMILES | Rate constant with glutathione (k(GSH)) [1] | Rate constant with Glutathione [1] | Rate constant with Cdk2 (k(Cdk2)) [2] | Rate enhancement, Cdk2 WT [2] | Rate constant with Cdk2 WT [2] | k(Cdk2)/k(Cdk2_mut) rate enhancement [2] | k(Cdk2)/k(GSH) rate enhancement [2] | Rate constant with Cdk2[C177A, F80C, K278C] (k(Cdk2_mut)) (Cdk2[C177A, F80C, K278C]) | Rate enhancement, Cdk2 F80C (Cdk2(C177A, F80C)) | Rate constant with Cdk2 F80C (Cdk2(C177A, F80C)) | Rate enhancement, Cdk2 H71C (Cdk2(H71C) (C177A)) | Rate enhancement, Cdk2 S276C (Cdk2(S276C) (C177A)) | Rate constant with Cdk2 S276C (Cdk2(S276C) (C177A)) | Rate enhancement, Cdk2 N272 (Cdk2(N272C) (C177A)) | Rate constant with Cdk2 N272C (Cdk2(N272C) (C177A)) | Rate enhancement, Cdk2 T182C (Cdk2(T182C) (C177A)) | Rate constant with Cdk2 T182C (Cdk2(T182C) (C177A)) | Rate enhancement, Cdk2 R122C (Cdk2(R122C) (C177A)) | Rate constant with Cdk2 R122C (Cdk2(R122C) (C177A)) | Rate enhancement, Cdk2 S181C (Cdk2(S181C) (C177A)) | other results
1 | C=CC(=O)NC(C)c1ccc2c(c1)OCO2 (stereo not shown) [EL-1051] | 0.00461 | 0.004569 | 0.00298 | 0.6621 | 0.003025 | 0.8251 | 0.6464 | 0.00361 | 0.1378 | 0.0006296 | 0 | 1.226 | 0.005603 | 0.3701 | 0.001691 | 0.6691 | 0.003057 | 0.3414 | 0.00156 | 0.6373 | Rate constant with Cdk2 S181C (Cdk2(S181C) (C177A)): 0.002912
2 | C=CC(=O)N1CCCCCC1c1cccnc1 (stereo not shown) [EL-1059] | 0.00656 | 0.00648 | 0.00213 | 0.3281 | 0.002126 | 0.4738 | 0.3244 | 0.00449 | 0.1379 | 0.0008934 | 0.3667 | 0.7301 | 0.004731 | 0.325 | 0.002106 | 1.009 | 0.00654 | 0.3573 | 0.002315 | 0.9519 | Rate constant with Cdk2 H71C (Cdk2(H71C) (C177A); Protein: Cdk2, cysteine position H71C, in h^-1): 0.002376; Rate constant with Cdk2 S181C (Cdk2(S181C) (C177A)): 0.006168
3 | C=CC(=O)N1CCCC1c1ccc(OC)cc1 (stereo not shown) [EL-1062] | 0.00509 | 0.005063 | 0.00448 | 1.245 | 0.006301 | 0.6762 | 0.8802 | 0.00663 | 1.223 | 0.006191 | 0 | 0.2765 | 0.0014 | 0.3073 | 0.001556 | 5.254 | 0.0266 | 0.606 | 0.003068 | 1.564 | Rate constant with Cdk2 S181C (Cdk2(S181C) (C177A)): 0.007918
